From US20100278896A1, “SOLID COMPOSITIONS” (UCL BUSINESS PLC, priority 2007, published 2010)

Assays:
[1] = Tablet release in flow rig, pH 7.6 aqueous solution, 37° C., flow rate 2 μl/min, HPLC; type: physicochemical
Procedure: To obtain some indication of release kinetics, flow rigs of 50-200 μl capacity were used to model the bleb. An Ilomastat tablet (one tablet per rig) was placed into the flow chamber. Two tubes are connected to each rig: one was connected to a peristaltic pump to introduce an aqueous solution and the other tube allowed the removal of the solution out of the rig. Flow rates were used to model the flow of the aqueous solution into and out from the subconjunctival space to the scleral veins.
A range of flow rates was used in the rig experiments; however, in most of the experiments a flow rate of 2 μl/min was used to simulate the aqueous flow rate in the bleb. To further simulate the actual conditions in the eye, the aqueous solution used was maintained at pH 7.4-7.6 (as this is the pH of normal human aqueous humor) and the temperature was maintained at 37° C. The aqueous solution that was prepared using Oxoid® Phosphate Buffered Saline Tablets (one tablet for every 100 ml of de-ionized water). The PBS tablets were dissolved in de-ionized water and the pH was adjusted to 7.6. The aqueous solution was kept at 37° C.
The mobile phase was prepared as follows. […] When the pH was adjusted, de-ionized water was added to make the buffer volume of 1000 ml. Aliquots of each sample (0.1 ml) were transferred to HPLC vials that were then placed in the HPLC auto-sampler. […] Three injections (10 μl each) for each time point were evaluated. A computer was connected with the UV detector and with the use of the programme Chrom+, the peak area was analyzed to determine the amount of Ilomastat. […] The average of the three measurements was used to determine the amount of Ilomastat. […]
As indicated above, a tablet of solid 5-FU was fabricated using the same technique as described above. The dissolution rate of the tablet was then determined using the same rig as described above.
Each tablet was placed into the rig as described above and liquid samples analysed by HPLC and concentration of 5-FU was determined using the calibration curve. […]

[2] = system: Human Tenon's fibroblasts (HTF); details: cited from earlier work; for contraction of HTF populated collagen gels: dose-dependent, Daniels et al., 2003
[3] = Engalytcheff et al. 2004; cited from earlier work
[4] = system: Human Tenon's fibroblasts (HTF); assay: Contraction of HTF collagen I gels (in vitro contraction model); type: cell-based; details: for Contraction (%) of HTF collagen I gels: media without DMSO; for Contraction (%) of HTF collagen I gels, Average / Contraction (%) of HTF collagen I gels, Group 1 / Contraction (%) of HTF collagen I gels, Group 2 / Contraction (%) of HTF collagen I gels, Group 3 / Contraction (%) of HTF collagen I gels, Group 4: 2nd in vitro experiment
Procedure: Human Tenon's fibroblasts (HTF) were used for in vitro cultures. These cells are involved in subconjunctival scarring. The process of HTF isolation and proliferation was performed by using 0.5 cm^3 tissue explants from donor eyes obtained from Moorfields Hospital Eye Bank under the Tenets of the Declaration of Helsinki (1989). Explants of 0.5 cm^3 were kept for two hours in the bottom of 25 cm^3 flasks, with a coverslip placed over them. Each flask contained 5 ml of normal culture medium consisting of Dulbecco's modified Eagle's Medium (DMEM) with 10% fetal calf serum, 2 mM L-glutamine, 100 U/ml penicillin, […] gentamicin, 100 μg/ml streptomycin and 0.25 μg/ml amphotericin. The flasks were placed in incubators at 37° C. and 5% humidified CO2 in air. The culture medium was changed every 3 days and when they became confluent, usually within one month, they were passaged into new flasks for direct experimental use or were stored in liquid nitrogen.
After the HTFs reached confluence, the culture medium was aspirated and the monolayer was washed with 1 ml of trypsin 1× (Gibco) and the trypsin was quickly aspirated for about 15 seconds. Next, 2 ml of trypsin 1× (Gibco) were added to each flask and HTFs were detached from the flasks by incubation for 2 minutes at 37° C. and 5% humidified CO2 in air. After confirming by phase contrast microscopy using a Leica microscope with ×10 magnification that the cells had been detached from the bottom of the flask and that they had obtained a round shape, 2 ml of cell culture medium were added to neutralise the trypsinisation. The cell suspension was transferred to a 15 ml centrifuge tube (STARLAB GMBH) and was centrifuged at 1600 rpm for 5 minutes. The cell pellet was then resuspended in 10 ml of cell culture medium and was divided into 4 different 75 cm^3 flasks (1:4 expansion). In each flask 7.5 ml of cell culture medium were added. Flasks were placed in incubators at 37° C. and 5% humidified CO2 in air and the culture media was changed every three days. The time that was required from passage to passage in order to reach confluence was 1 week on average.
With a Neubauer plate, 6.2×10^4 HTF were counted and then were resuspended in 170 μl FBS in a 50 ml universal tube. Concentrated medium (160 μl) was added (stock solution consisting of 3.5 ml DMEM (×10 stock), 0.35 ml glutamine (2 mM stock) and 0.9 ml sodium bicarbonate (7.5% stock). 830 μl of First Link type I collagen solution collagen (stock 2.2 mg/ml in 0.6% acetic acid) were then added and the solution was mixed by swirling to avoid air bubbles. Sterile 1M NaOH (75-80 μl) was rapidly added to change the acidic pH of the solution. This caused the solution to turn a pink colour without reverting back to yellow. Quickly 150 μl collagen gel solution was cast into the wells of Mattek dishes making sure to cast the gel to the edges of the central groove using the pipette tip. Creation of air bubbles when ejecting the gel from the tip should be avoided. If air bubbles were formed, they were aspirated out. Usually, from a 1.2 ml gel suspension, 6 gels can easily be cast. Following this process, the wells of Makket dishes with the gels were placed in incubator to set for at least 10-15 min (up to 30 mins). Gels were detached from the edges of the central groove using yellow tips and excess unpolymerised solution was aspirated off. Two milliliters of cell culture medium were added and the dishes were placed in incubators at 37° C. and 5% humidified CO2 in air; the medium was replaced every 3 days.
Generally solid Ilomastat is diluted into DMSO before being added into the media, however in this experiment Ilomastat could be directly dissolved in the normal media without DMSO. […] The concentration of both samples was then confirmed by HPLC.
To compare with irradiated Ilomastat, experiments were conducted with three different treatment groups of collagen gels. Each treatment group had 3 collagen I gels with HTFs. […]

[5] = Comparison of irradiated and non-irradiated product (gamma radiation, HPLC)
[6] = Dissolution of Ilomastat in pH 7.6 aqueous solution without DMSO; type: physicochemical
Procedure: The curve was created as follows. […] The stock solution was then diluted in individual containers to give six other solutions with the following concentrations: 80 μM, 60 μM, 40 μM, 20 μM, 10 μM and 5 μM. Each solution was then evaluated three times by HPLC and the absorbance was determined.
A standard tablet punch and die and a press with an applied a pressure of five bars were used.

[7] = system: rabbit bleb after trabeculectomy; details: 17 injections in DMSO, 30 days, vs DMSO only control; cited from earlier work

In the case of `O=c1[nH]cc(F)c(=O)[nH]1` [5-FU], the release period ([1]; excipient-free 5-FU tablets A, B and C averaged) was 25 h and the release kinetics ([1]; excipient-free tablets, FIGS. 9 to 13) was “essentially linear release of drug over a period of many hours”.
For `CNC(=O)[C@@H](NC(=O)[C@H](CC(C)C)NC(=O)[C@@H](S)CCN1C(=O)N(C)C(C)(C)C1=O)C(C)(C)C` [BMS-275291], the “contraction of HTF populated collagen gels” value [2] is given as “inhibition of the contraction of the gels”.
For `C[C@H](CS)C(=O)N1CCC[C@H]1C(=O)O` [Captopril], the “degradation caused from irradiation” value [3] is given as “not significant”.
With `CNC(=O)[C@H](Cc1c[nH]c2ccccc12)NC(=O)[C@@H](CC(=O)NO)CC(C)C` [IRRADIATED ILOMASTAT] the “Contraction (%) of HTF collagen I gels” value ([4]; DAY 0) was 0%, the “Contraction (%) of HTF collagen I gels” value ([4]; DAY 1) was 12.51% and the “Contraction (%) of HTF collagen I gels” value ([4]; DAY 2) was 23.65%. For the same compound, the “Contraction (%) of HTF collagen I gels” value ([4]; DAY 3) was 28.44%, the “Contraction (%) of HTF collagen I gels” value ([4]; DAY 4) was 30.8% and the “Contraction (%) of HTF collagen I gels” value ([4]; DAY 5) was 32.23%. For the same compound, the “Contraction (%) of HTF collagen I gels” value ([4]; DAY 6) was 33.76%, the “Contraction (%) of HTF collagen I gels” value ([4]; DAY 7) was 36.12% and the “trace products formed after irradiation, compared to total Ilomastat” value ([5]; 25 kGy gamma radiation, HPLC extra peak) was 0.25%.
For `CNC(=O)[C@H](Cc1c[nH]c2ccccc12)NC(=O)[C@@H](CC(=O)NO)CC(C)C` [Ilomastat, N-[(2R)-2-(hydroxamidocarbonylmethyl)-4-methylpentanoyl]-L tryptophan methylamide], the “time for which an MMP inhibitory concentration of 10 μM is maintained” value ([1]; solid dosage form of about 2 to 5 mg) is listed as “at least 30 days”, the “theoretical maximum dissolution in the aqueous solution” value [6] is listed as “about 100 μM” and the “concentrations inhibiting in vitro contraction in collagen I gels in a dose dependent manner” value ([2]; Daniels et al. 2003, WO 95/24921) is listed as 10 to 100 nM. For the same compound, the “contraction of HTF populated collagen gels” value [2] was “inhibition of the contraction of the gels”, the bleb survival [7] was “prolong significantly the bleb survival” and the “degradation caused by gamma radiation” value ([5]; 25 KGys dose) was “not significant”.
In the case of `CNC(=O)[C@H](Cc1c[nH]c2ccccc12)NC(=O)[C@@H](CC(=O)NO)CC(C)C` [NON IRRADIATED], the “Contraction (%) of HTF collagen I gels” value ([4]; DAY 0) was 0%, the “Contraction (%) of HTF collagen I gels” value ([4]; DAY 1) was 11.96% and the “Contraction (%) of HTF collagen I gels” value ([4]; DAY 2) was 27.19%. For the same compound, the “Contraction (%) of HTF collagen I gels” value ([4]; DAY 3) was 32.97%, the “Contraction (%) of HTF collagen I gels” value ([4]; DAY 4) was 39.9% and the “Contraction (%) of HTF collagen I gels” value ([4]; DAY 5) was 41.66%. The “Contraction (%) of HTF collagen I gels” value ([4]; DAY 6) was 42.03% and the “Contraction (%) of HTF collagen I gels” value ([4]; DAY 7) was 43.19%.
For `CNC(=O)[C@H](Cc1c[nH]c2ccccc12)NC(=O)[C@@H](CC(=O)NO)CC(C)C` [Non-Irradiated Ilomastat with DMSO], the “Contraction (%) of HTF collagen I gels, Average” value (from here on “Contraction (%) … Average”) ([4]; Day 1) was 19.35%, the “Contraction (%) of HTF collagen I gels, Group 1” value (from here on “Contraction (%) … Group 1”) ([4]; Day 1) was 13.03% and the “Contraction (%) of HTF collagen I gels, Group 2” value (from here on “Contraction (%) … Group 2”) ([4]; Day 1) was 19.45%. The “Contraction (%) of HTF collagen I gels, Group 3” value (from here on “Contraction (%) … Group 3”) ([4]; Day 1) was 20.69%, the “Contraction (%) of HTF collagen I gels, Group 4” value (from here on “Contraction (%) … Group 4”) ([4]; Day 1) was 24.23% and the “Contraction (%) … Average” value ([4]; Day 2) was 22.63%. For the same compound, the “Contraction (%) … Group 1” value ([4]; Day 2) was 19.75%, the “Contraction (%) … Group 2” value ([4]; Day 2) was 22.77% and the “Contraction (%) … Group 3” value ([4]; Day 2) was 21.37%. The “Contraction (%) … Group 4” value ([4]; Day 2) was 26.63%, the “Contraction (%) … Average” value ([4]; Day 3) was 23.325% and the “Contraction (%) … Group 1” value ([4]; Day 3) was 20.44%. The “Contraction (%) … Group 2” value ([4]; Day 3) was 24.14%, the “Contraction (%) … Group 3” value ([4]; Day 3) was 21.55% and the “Contraction (%) … Group 4” value ([4]; Day 3) was 27.17%. For the same compound, the “Contraction (%) … Average” value ([4]; Day 4) was 24.14%, the “Contraction (%) … Group 1” value ([4]; Day 4) was 21.15% and the “Contraction (%) … Group 2” value ([4]; Day 4) was 25.19%. The “Contraction (%) … Group 3” value ([4]; Day 4) was 22.11%, the “Contraction (%) … Group 4” value ([4]; Day 4) was 28.11% and the “Contraction (%) … Average” value ([4]; Day 5) was 25.375%. The “Contraction (%) … Group 1” value ([4]; Day 5) was 23.36%, the “Contraction (%) … Group 2” value ([4]; Day 5) was 25.33% and the “Contraction (%) … Group 3” value ([4]; Day 5) was 22.96%. The “Contraction (%) … Group 4” value ([4]; Day 5) was 29.85%, the “Contraction (%) … Average” value ([4]; Day 6) was 27.6425% and the “Contraction (%) … Group 1” value ([4]; Day 6) was 24.42%. The “Contraction (%) … Group 2” value ([4]; Day 6) was 27.9%, the “Contraction (%) … Group 3” value ([4]; Day 6) was 24.9% and the “Contraction (%) … Group 4” value ([4]; Day 6) was 33.35%. The “Contraction (%) … Average” value ([4]; Day 7) was 28.2525%, the “Contraction (%) … Group 1” value ([4]; Day 7) was 25.07% and the “Contraction (%) … Group 2” value ([4]; Day 7) was 29%. For the same compound, the “Contraction (%) … Group 3” value ([4]; Day 7) was 24.9% and the “Contraction (%) … Group 4” value ([4]; Day 7) was 34.04%.
